The values below come from patent US4483872A, “Non-classical topical treatment for glaucoma using n-substituted sulfonamides” (University of Iowa Research Foundation, priority 1983, dated 1984).

Assay [1] concerns eye of normal adult white rabbits. Description: IOP after topical drops of 1% solution, Examples 6 and 7. Format: in vivo, rabbit. The arrangement: unit: mm Hg. Particulars: 3 drops. As to the method:
A 1% solution of 1-(N-hydroxy-N-methylsulfamido)-4-chlorobenzene and a 1% solution of 1-(N-hydroxy-N-methyl-sulfamido)-4-nitrobenzene were prepared for two separate experiments, examples 6 and 7 resepctively. The vehicle consisted of aqueous pH 7.2 phosphate buffer. One drop, followed by two drops each at one minute intervals, was applied to one eye of normal adult white rabbits. Six rabbits were used in example 6 and twelve rabbits in example 7. The treated eye was selected randomly, whereas, the fellow eye received placebo. The observer was masked. The intraocular pressure (IOP) was measured with a Digilab pneumotonometer, initially and every ten minutes for 180 minutes in each experiment following instillation of the anti-glaucoma agent. A drop of local anesthetic was applied to each eye just prior to making the measurement.

Assay [2] has the same test system. Kind of assay: Salted rabbit test: intraocular pressure (IOP) after topical drops. Format: in vivo. As for the experimental part: In particular, an initial drop from the test formulation followed by two drops at one minute intervals are applid to one eye of each of six adult white rabbits that had been maintained on a diet containing 0.5% sodium. The treated eye was selected randomly, whereas, the fellow eye received placebo; the observer was masked. Results identified a small but significant reduction of intraocular pressure in the treated eye at 30, 60 and 120 minutes.
One drop, followed by two drops each at one minute intervals, was applied to one eye of normal adult white rabbits. Six rabbits were used in the experiment. The treated eye was selected randomly, whereas, the fellow eye received placebo. The observer was masked. The intraocular pressure (IOP) was measured with a Digilab Pneumotonometer, initially and every ten minutes for 120 minutes following instillation of the anti-glaucoma agent. A drop of local anesthetic was applied just prior to making the measurement.
IOP* Changes = (IOPDET - IOPCET) - (IOPDEO - IOPCEO)
IOPDET = measurement (mm Hg) of dosed eye at time t.
IOPDEO = measurement (mm Hg) of dosed eye at t = 0, but prior to
IOPDET = IOP measurement (mm Hg) of control (nondosed) eye at time t
IOPCEO = IOP measurement (mm Hg) of control eye at time t = 0
*Difference in IOP measurements (mm Hg) between both eyes just prior to
dosing at t = 0 (i.e., IOPDEO - IOPCEO).

The target in another assay is carbonic anhydrase. Kind of assay: in vitro carbonic anhydrase activity, simplified method of Maren. Format: biochemical. As for the experimental part:
The procedure required the use of a specialized glass reaction vessel to which was added 0.4 ml phenol red indicator (0.00125%), 0.25 to 0.30 ml heparinized blood containing 2 enzyme units of carbonic anhydrase, 0.1 ml drug solution (0.01 to 100 mg/L) and 0.1 ml of 0.255 M carbonate buffer. […] Water was added to the reaction vessel which was kept in a water bath at 0±0.25° C. The reaction cell was constantly purged with CO2 at a rate of 200 to 250 ml/min. Each reagent was added at a specified time and in a specified order. […] The time required for the reaction begins with the addition of carbonate buffer and was completed with the indicator changed from red to yellow. […] Reaction time was the time for the uncatalyzed reaction time. The reaction times remain constant once equilibration has been attained. By varying the time before adding the carbonate buffer and then determining the reaction time, the equilibration time can be accurately determined. The reaction time was averaged over three determinations. A range of drug concentrations were reacted and the concentration of drug causing 50% inhibition of enzyme (I50) read from a plot of reaction time against drug concentration. (If two enzyme units are added, then the concentration of drug yielding a reaction time corresponding to the activity of one unit is taken as the I50). An enzyme unit (e.u.) was calculated from: [formula]

As to `CN(O)S(=O)(=O)c1ccc(Cl)cc1` [1-(N-hydroxy-N-methylsulfamido)-4-chlorobenzene], the “IOP changes, Ave. change” value is 0.417 in assay [1] (Example 6, 0 min); 0.617 in assay [1] (Example 6, 20 min); 1.00 in assay [1] (Example 6, 40 min); -1.25 in assay [1] (Example 6, 60 min, probability less than 0.025); 0.167 in assay [1] (Example 6, 80 min); 0.667 in assay [1] (Example 6, 100 min). Moreover, the “IOP changes, Ave. change” value is on record as 0.333 in assay [1] (Example 6, 120 min); “-.333” in assay [1] (Example 6, 140 min); -0.25 in assay [1] (Example 6, 160 min); -0.25 in assay [1] (Example 6, 180 min).

On to `CN(O)S(=O)(=O)c1ccc([N+](=O)[O-])cc1` [1-(N-hydroxy-N-methyl-sulfamido)-4-nitrobenzene], for which the “IOP changes, Ave. change” value in assay [1] (Example 7, 0 min) is 0.167; in assay [1] (Example 7, 10 min), 0.333; in assay [1] (Example 7, 20 min), -0.333; in assay [1] (Example 7, 30 min), “-.667”; in assay [1] (Example 7, 40 min, probability less than 0.05) it was -1.67; in assay [1] (Example 7, 50 min, probability less than 0.025) it was -1.83. For the same compound, the “IOP changes, Ave. change” value in assay [1] (Example 7, 60 min, probability less than 0.025 (footnote)) was 1.67; in assay [1] (Example 7, 70 min, probability less than 0.025) it was -2.0; in assay [1] (Example 7, 80 min, probability less than 0.05), -1.167; in assay [1] (Example 7, 90 min), 0.2; in assay [1] (Example 7, 100 min), -0.5; in assay [1] (Example 7, 110 min), -0.33. For the same compound, the “IOP changes, Ave. change” value in assay [1] (Example 7, 120 min) is recorded as -1.00.

As to `CNS(=O)(=O)c1nnc(NC(C)=O)s1` [methyl acetazolamide, N-methyl-2-acetylamino-1,3,4-thiadiazole-5-sulfonamide], in assay [2] (0 min, just prior to dosing (baseline, IOPDEO - IOPCEO), six rabbits), the “IOP difference between both eyes, Av. Chg.” value was determined as 1.83 mm Hg. For the same compound, the “lowering of IOP, statistical significance” value in assay [2] (1% w/v suspension, 3 drops, all time intervals to 120 min) is recorded as “statistically significant at all time intervals”. For the same compound, in assay [2] (after topical administration), the “reduction of intraocular pressure” value is reported as “able to reduce intraocular pressure”. Further, at carbonic anhydrase (2 enzyme units of carbonic anhydrase in heparinized blood, 0° C., averaged over three determinations), the “averaged I50 (concentration of drug causing 50% inhibition of enzyme)” value was determined as 0.520 mg. The “in vitro activity” value in the assay with carbonic anhydrase (in vitro) is “inactive in vitro”. Besides, the “activity relative to acetazolamide (ratio of I50 values)” value in the assay on carbonic anhydrase (ratio 0.52/0.00914) was 1/60.
